Columns and labels:
[1] = molecular target: T1, iSRCR1 (Homo sapiens, UniProt Q9UGM3); assay: SPR binding of analytes to immobilized iSRCR1 (CM5 chip, 1:1 Langmuir); details: substance alone over CM5 chip
T1 construct: strongly proves that a single SRCR domain contains the adherence sites for AgI/II and SspB; made in house; host or cells: Drosophila expression system
Method: (§1) Real time binding analyses of the SRCR domains with AgI/II fragments were carried out using the BIAcore 2000 system. […] Self association of iSRCR1 or iSRCR123 (at 2 μM) were also determined in a similar manner as described above. Finally to determine the effect of calcium SPR analysis was carried out by dialyzing the analytes and ligands in binding buffer devoid of CaCl2.
(§2) In addition, the SRCR holding two distinct surfaces compounded the elucidation of individual kinetics, and presently there are no modeling protocols available to determine the individual affinities for such a system, therefore for simplicity we have utilized a single site 1:1 Langmuir model. All experiments were carried out in triplicates and the kinetics of the association (KA) and dissociation (KD) rate constants were deduced using the 1:1 Langmuir Kinetic model on the BIA-Evaluation software. The concentration (C in μM) of analyte (FL^AgI/II or FL^SspB at 2 μM) that adhered to the immobilized ligand (iSRCR1, iSRCR123) within the flow cell was calculated using the formula C=(RU/MW)×(1/V), where RU is resonance unit (1 RU=1 pg of bound protein), MW is molecular weight of analyte and V is volume of flow cell (1.2×10^−10 L).

[2] = molecular target: T2, iSRCR123 (Homo sapiens, UniProt Q9UGM3); assay: SPR binding of analytes to immobilized iSRCR123 (CM5 chip, 1:1 Langmuir); details: substance alone over CM5 chip
T2 construct: multiple SRCR domains have better adherence capability compared to that of a single SRCR domain; made in house; host or cells: Drosophila expression system
T2 sequence (Q9UGM3 102-463 limits assumed): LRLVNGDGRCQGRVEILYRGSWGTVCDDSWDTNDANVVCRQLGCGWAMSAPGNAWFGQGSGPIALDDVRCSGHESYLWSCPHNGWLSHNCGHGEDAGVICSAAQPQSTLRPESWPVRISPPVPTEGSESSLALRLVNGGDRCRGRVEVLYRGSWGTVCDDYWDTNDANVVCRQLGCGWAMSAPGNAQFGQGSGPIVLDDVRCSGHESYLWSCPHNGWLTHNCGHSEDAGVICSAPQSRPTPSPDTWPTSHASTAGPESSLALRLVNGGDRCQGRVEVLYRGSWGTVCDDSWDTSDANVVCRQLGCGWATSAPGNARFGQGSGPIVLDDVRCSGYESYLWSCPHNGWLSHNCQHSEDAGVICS
Method: as §1, §2

[3] = molecular target: T3, SAG (Homo sapiens, UniProt Q9UGM3); assay: SPR binding of analytes to immobilized SAG; details: 2 mM, control experiment
T3 construct: from tissue; host or cells: saliva (purified SAG, gift)
T3 sequence (Q9UGM3 20-2413): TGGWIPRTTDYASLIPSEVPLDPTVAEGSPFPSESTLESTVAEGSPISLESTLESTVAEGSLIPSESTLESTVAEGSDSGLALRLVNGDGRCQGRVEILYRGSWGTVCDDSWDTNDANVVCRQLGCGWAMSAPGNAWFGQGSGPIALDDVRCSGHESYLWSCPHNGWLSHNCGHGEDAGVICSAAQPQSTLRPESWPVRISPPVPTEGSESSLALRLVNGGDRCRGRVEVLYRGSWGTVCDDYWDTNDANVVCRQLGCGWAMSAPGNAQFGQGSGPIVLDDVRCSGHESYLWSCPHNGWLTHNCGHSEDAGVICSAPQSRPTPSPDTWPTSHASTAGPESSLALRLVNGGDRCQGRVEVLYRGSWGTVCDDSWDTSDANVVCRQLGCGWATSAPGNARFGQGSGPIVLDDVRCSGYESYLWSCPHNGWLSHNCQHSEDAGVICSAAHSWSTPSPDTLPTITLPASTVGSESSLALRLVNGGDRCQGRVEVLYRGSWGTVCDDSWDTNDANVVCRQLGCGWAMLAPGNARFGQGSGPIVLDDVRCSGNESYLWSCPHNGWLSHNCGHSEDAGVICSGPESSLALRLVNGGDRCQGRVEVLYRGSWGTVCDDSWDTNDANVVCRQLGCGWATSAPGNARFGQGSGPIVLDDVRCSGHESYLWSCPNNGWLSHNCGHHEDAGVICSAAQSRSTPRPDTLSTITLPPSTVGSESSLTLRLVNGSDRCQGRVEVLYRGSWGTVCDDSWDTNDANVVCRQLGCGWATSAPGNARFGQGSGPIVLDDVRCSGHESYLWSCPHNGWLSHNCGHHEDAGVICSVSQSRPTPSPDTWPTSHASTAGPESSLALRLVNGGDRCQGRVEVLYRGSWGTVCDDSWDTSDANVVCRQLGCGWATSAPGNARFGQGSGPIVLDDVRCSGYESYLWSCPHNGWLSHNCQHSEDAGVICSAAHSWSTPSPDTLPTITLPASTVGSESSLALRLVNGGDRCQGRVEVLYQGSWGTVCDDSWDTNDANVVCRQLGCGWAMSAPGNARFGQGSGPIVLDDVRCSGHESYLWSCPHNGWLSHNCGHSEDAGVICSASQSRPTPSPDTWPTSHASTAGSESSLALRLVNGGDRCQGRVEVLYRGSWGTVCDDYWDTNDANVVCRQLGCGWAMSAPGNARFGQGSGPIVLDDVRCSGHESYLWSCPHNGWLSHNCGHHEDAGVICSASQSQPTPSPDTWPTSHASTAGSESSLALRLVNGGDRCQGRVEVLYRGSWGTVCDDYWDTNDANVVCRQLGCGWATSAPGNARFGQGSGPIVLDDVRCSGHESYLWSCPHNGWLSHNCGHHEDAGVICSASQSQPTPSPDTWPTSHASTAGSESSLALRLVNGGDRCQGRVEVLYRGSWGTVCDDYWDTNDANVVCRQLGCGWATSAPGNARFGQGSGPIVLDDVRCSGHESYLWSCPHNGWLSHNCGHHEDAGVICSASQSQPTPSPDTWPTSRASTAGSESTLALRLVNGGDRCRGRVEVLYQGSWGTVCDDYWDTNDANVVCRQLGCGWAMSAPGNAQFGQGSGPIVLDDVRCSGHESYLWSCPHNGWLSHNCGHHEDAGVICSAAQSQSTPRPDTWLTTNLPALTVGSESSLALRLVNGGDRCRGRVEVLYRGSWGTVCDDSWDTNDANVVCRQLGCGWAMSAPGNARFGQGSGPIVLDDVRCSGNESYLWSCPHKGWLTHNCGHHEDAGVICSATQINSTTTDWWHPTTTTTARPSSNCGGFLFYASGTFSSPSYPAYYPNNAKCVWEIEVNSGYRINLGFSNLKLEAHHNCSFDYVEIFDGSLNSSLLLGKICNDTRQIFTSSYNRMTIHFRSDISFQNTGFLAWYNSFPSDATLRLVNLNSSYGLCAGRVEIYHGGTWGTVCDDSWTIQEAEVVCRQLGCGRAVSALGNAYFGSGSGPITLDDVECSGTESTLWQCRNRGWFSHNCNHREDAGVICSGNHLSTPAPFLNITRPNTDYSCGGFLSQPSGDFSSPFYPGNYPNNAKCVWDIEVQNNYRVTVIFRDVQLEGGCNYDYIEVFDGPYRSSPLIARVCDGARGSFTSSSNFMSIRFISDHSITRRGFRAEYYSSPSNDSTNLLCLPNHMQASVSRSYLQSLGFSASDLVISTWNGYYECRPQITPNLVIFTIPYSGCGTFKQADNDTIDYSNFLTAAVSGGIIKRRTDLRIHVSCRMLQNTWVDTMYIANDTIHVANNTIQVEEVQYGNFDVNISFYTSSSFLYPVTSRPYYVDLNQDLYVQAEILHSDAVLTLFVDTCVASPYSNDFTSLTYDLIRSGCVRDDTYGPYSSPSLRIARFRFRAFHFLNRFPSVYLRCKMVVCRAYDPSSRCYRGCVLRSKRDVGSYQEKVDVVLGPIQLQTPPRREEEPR
Method: as §1, §2

[4] = tested on: adhesion of AgI/II of S. mutans to iSRCR1; assay: Adherence/inhibition SPR: AgI/II fragments on immobilized iSRCR1; type: binding
Method: (§3) Carbohydrates Galβ1-3-GalNac and Mannose (identified from glycan profile analysis) at different concentrations (0.010, 0.050, 0.1, 0.5 and 1 mM) were incubated with 2 μM of each FL, A3VP1 and C123 of AgI/II and SspB and the interaction with immobilized iSRCR1 and iSRCR123 with running buffer containing 20 mM HEPES, 150 mM NaCl and 2.5 mM CaCl2, pH 7.4 at 25° C. and with flow rate of 20 μl/min was analyzed. Direct adherence of these carbohydrates alone served as the control and all calculations were carried out using the BIAevaluation software. Using the same protocol above at varying concentrations the effect of SRCRP2 peptide on the adherence inhibition was assessed.

[5] = molecular target: T4, adhesion of SspB of S. gordonii to iSRCR1 (Streptococcus gordonii, UniProt A8AUS1); type: binding; details: 1.0 mM; 2 μM protein
T4 construct: made in house; host or cells: pET23d vector
Method: as §3

[6] = tested on: adhesion of SspB of S. gordonii to iSRCR1; type: binding; details: lower concentrations 0.010 mM-0.500 mM
Method: as §3

[7] = tested on: adhesion of AgI/II of S. mutans to iSRCR123; assay: Adherence/inhibition SPR: AgI/II fragments on immobilized iSRCR123; type: binding
Method: as §3

[8] = tested on: adhesion of SspB of S. gordonii to iSRCR123; assay: Adherence/inhibition SPR: SspB fragments on immobilized iSRCR123; type: binding
Method: as §3

[9] = molecular target: T5, AgI/II adherence to immobilized salivary agglutinin (Streptococcus mutans serotype c, UniProt P23504); assay: SPR inhibition of SAG adherence of FL surface protein (Example 2); type: binding, S. mutans; details: 2 mM
T5 construct: Recombinant full length (FL) constructs of surface proteins (homologs of AgI/II) AgI/II, SspB, Pas; made in house
T5 sequence (P23504 39-1562): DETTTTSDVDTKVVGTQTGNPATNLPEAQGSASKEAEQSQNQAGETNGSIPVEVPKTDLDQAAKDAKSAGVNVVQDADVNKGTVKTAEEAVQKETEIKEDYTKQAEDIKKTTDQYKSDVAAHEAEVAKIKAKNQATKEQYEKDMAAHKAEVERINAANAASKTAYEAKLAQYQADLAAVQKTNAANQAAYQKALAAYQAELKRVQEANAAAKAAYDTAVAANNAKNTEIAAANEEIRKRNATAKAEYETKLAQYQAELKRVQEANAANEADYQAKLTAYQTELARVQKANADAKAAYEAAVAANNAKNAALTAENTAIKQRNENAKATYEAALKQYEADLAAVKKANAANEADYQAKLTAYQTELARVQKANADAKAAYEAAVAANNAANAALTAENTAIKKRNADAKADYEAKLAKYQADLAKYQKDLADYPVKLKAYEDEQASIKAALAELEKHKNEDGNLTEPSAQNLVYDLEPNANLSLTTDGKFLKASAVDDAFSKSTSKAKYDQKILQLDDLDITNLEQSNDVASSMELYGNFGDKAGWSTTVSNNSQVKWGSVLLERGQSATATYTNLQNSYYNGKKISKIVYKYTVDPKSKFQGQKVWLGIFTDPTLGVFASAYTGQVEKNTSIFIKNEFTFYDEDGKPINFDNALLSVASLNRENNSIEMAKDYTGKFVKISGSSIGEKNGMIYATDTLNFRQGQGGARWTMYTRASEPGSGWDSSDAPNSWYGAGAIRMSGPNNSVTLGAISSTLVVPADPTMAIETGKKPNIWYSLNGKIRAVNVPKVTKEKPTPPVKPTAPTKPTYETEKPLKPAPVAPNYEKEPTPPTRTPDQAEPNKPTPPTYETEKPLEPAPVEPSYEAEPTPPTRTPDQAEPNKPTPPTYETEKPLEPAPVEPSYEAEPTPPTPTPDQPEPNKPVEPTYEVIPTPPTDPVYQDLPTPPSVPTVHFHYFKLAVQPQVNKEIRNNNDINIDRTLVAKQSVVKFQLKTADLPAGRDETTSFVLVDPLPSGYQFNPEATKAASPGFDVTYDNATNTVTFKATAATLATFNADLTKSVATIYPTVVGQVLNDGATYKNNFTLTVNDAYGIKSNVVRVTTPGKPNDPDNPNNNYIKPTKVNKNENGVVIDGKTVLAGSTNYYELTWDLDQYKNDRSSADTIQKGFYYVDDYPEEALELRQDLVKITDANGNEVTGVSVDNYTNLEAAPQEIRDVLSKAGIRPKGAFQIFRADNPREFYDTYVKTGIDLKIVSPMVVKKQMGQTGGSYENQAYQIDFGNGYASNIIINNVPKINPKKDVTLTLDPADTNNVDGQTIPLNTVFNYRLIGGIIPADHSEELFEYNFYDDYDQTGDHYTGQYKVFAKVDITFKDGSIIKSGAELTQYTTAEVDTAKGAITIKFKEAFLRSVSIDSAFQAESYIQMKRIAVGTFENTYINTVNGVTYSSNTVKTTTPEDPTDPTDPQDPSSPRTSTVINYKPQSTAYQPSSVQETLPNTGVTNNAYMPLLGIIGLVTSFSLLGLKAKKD
Method: (§4) Inhibition of SAG adherence to AgI/II, SspB, Pas, along with glucan binding protein C (GbpC) and collagen binding protein (rcnM) by Galβ1-3GalNac (core-1) was determined as is described in Example 1 and as described below.
(§5) Recombinant full length (FL) constructs of surface proteins (homologs of AgI/II) AgI/II, SspB, Pas, along with GbpC (Glucan binding protein C) and rcnM (collagen binding protein) were incubated with various concentrations (0.010 mM to 2 mM) of Galβ1-3GalNac at room temperature and their binding interaction with immobilized salivary agglutinin on a CM5 sensor chip was determined.

[10] = molecular target: T6, SspB adherence to immobilized salivary agglutinin (Streptococcus gordonii, UniProt A8AUS1); assay: as above; type: binding, S. gordonii; details: 2 mM
T6 construct: (39-1433) (NotI) Reverse; made in house; host or cells: pET23d vector
Method: as §4, §5

[11] = tested on: GbpC (Glucan binding protein C) adherence to immobilized salivary agglutinin; assay: as above; parameters: species or system S. mutans; details: 2 mM
Method: as §4, §5

[12] = tested on: rcnM (collagen binding protein) adherence to immobilized salivary agglutinin; assay: as above; details: 2 mM
Method: as §4, §5

[13] = molecular target: T7, Pas adherence to immobilized salivary agglutinin (Streptococcus intermedius, UniProt Q9KW51); assay: as above; type: binding, S. intermedius; details: 2 mM
T7 construct: Recombinant full length (FL) constructs of surface proteins (homologs of AgI/II) AgI/II, SspB, Pas; made in house
Method: as §4, §5

[14] = tested on: S. gordonii DL1; assay: Flow cytometric analysis of iSRCR adherence to bacteria; type: cell-based; details: 10 μM, compared with S. mutans
Method: (§6) S. mutans UA159 and S. gordonii DL1 cells were grown overnight in TSY broth media at 37° C. and washed thoroughly with FACS buffer (20 mM HEPES pH 7.4, 150 mM NaCl and 5% non-fat dry milk) to reduce non-specific binding. Subsequently, 10 μM of iSRCR1 or iSRCR123 were added to 100 μl of cells (1×10^7 cells/ml) in binding buffer (FACS buffer+2.5 mM CaCl2) and incubated for 60 min at 37° C. The cells were later washed thoroughly with binding buffer to remove unbound iSRCRs. Subsequently, Anti-His tag Alexafluor 488 antibody (1:50 dilution) (EMD Millipore, Inc) that adheres to the His tag present on SRCRs was added to the cells and incubated for 30 min, washed three times and resuspended in 200 μl of binding buffer. Samples without iSRCRs served as control. Samples were then assayed using the FACScan machine (BD Biosciences) at the Analytical and Preparative Cytometry Facility (APCF) at UAB, and data obtained was analyzed using FlowJo 7.2.4 software.

[15] = tested on: S. mutans UA159; assay: as above; type: cell-based; details: 10 μM
Method: as §6

[16] = tested on: S. mutans UA159; assay: Confocal microscopy of iSRCR adherence to bacteria; type: cell-based; details: 10 μM
Method: S. mutans UA159 and S. gordonii DL1 were grown overnight in TSY (30 g/L of Trypticase soy broth and 0.5 g/L yeast extract, pH 7.2) media on an eight-well Lab Tek Chamber slide system (Sigma). The cells were fixed with 3% paraformaldehyde, washed with binding buffer (20 mM HEPES pH 7.4, 150 mM NaCl and 2.5 mM CaCl2), and thereafter iSRCR1 or iSRCR123 (10 μM) were added to the cells and incubated for 60 min. The unbound SRCRs were removed by repeated washing using the binding buffer. Subsequently, Alexa fluor 488 conjugated Anti-His-tag antibody (EMD Millipore, Inc) (1:50 dilution) that can bind to the His Tag on SRCRs was added. After 60 min incubation the unbound antibody was washed away thoroughly using binding buffer, and the chamber walls were gently removed. Cover slips were then mounted with 15 μl of fluoromount-G with DAPI (Southern Biotech Inc) to stain bacterial nuclei and were sealed until ready to be imaged. The experiment without SRCRs served as control. All slides were imaged using Leica SP1 UV Confocal Laser Scanning Microscope and Zeiss LSM 710 Confocal Laser Scanning Microscope at the UAB-High resolution imaging facility (UAB-HRIF).

[17] = tested on: S. gordonii DL1; assay: Aggregation assay (OD700 over 60 min); type: cell-based; details: iSRCR 10 μM or SAG, 6 mM CaCl2
Method: (§7) Aggregation assays were performed as described earlier with slight modifications. Briefly, S. mutans UA159 and S. gordonii DL1 cells were grown in TSY broth media overnight at 37° C. in the presence of 5% CO2. The bacteria were centrifuged at 5000×g and washed with a buffer containing 20 mM HEPES pH 7.4, 150 mM NaCl and re-suspended to an approximate OD700 of 1. The bacterial suspension (900 μl) was mixed with 100 μl of SAG or iSRCR1 (10 μM) or iSRCR123 ([…]) or commercially synthesized (Think Peptides, Inc) SRCRP2 peptide with fluorescein amidite (FAM) at the carboxyl end ([…]-[FAM]) (SEQ ID NO:9, at both 400 μg/ml and 1 mg/ml) in the presence of 6 mM CaCl2 and aggregation was measured by recording OD700over 60 min at 5 min intervals, where the buffer alone was used as control. All experiments were carried out at least five times, and the results were analyzed with One-way ANOVA. Post-hoc testing where *, P<0.05 was considered statistically significant and results were presented as the percentage of cells aggregated.

[18] = tested on: S. mutans UA159; assay: Aggregation assay (OD700 over 60 min); type: cell-based; details: iSRCR 10 μM or SAG, 6 mM CaCl2
Method: as §7

[19] = Differential scanning calorimetry, thermostability of SRCRs with calcium; type: physicochemical; details: no added CaCl2
Method: The thermostability of SRCRs in the presence of calcium ions was analyzed using Microcal MC-II differential scanning calorimeter (GE HealthCare, USA) as described earlier. Briefly, iSRCR1 or iSRCR123 at concentration of 1 mg/ml was mixed and incubated with different concentration of CaCl2 ranging from (0-100 mM) to final volume of 400 μl of buffer containing 20 mM HEPES, 150 mM NaCl), and buffer without SRCRs served as control. Data were recorded with calorimetric scanning rates that ranged from 30° C./h to 90° C./hat 30 psi pressure. The data collected was analyzed for the unfolding temperature (Tt), and the calorimetric (ΔHcal) and van't Hoff (ΔHv) unfolding enthalpies using the Origin software package (MicroCal).

[20] = lower concentrations 0.010 mM-0.500 mM

T1 sequence (Q9UGM3 102-202 limits assumed): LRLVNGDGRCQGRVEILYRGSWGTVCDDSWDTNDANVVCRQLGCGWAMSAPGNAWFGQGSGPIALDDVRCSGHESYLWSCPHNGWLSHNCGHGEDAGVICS

Compound: CC(=O)N[C@H]1C(O)O[C@H](CO)[C@H](O)[C@@H]1O[C@@H]1O[C@H](CO)[C@H](O)[C@H](O)[C@H]1O (stereo partly drawn) [Galβ1-3-GalNac]
- direct binding to immobilized iSRCR1 (in words) [1]: did not have any interactions
- direct binding to immobilized iSRCR123 (in words) [2]: did not have any interactions
- direct adherence to SAG (in words) [3]: did not show direct adherence
- inhibition of adhesion of A3VP1^AgI/II to iSRCR1 ([4]; 1.0 mM, 2 μM protein): 79%
- inhibition of adhesion of C123^AgI/II to iSRCR1 ([4]; 1.0 mM, 2 μM protein): 73%
- inhibition of adhesion of FL^AgI/II to iSRCR1 ([4]; 1.0 mM, 2 μM protein): 85%
- effect on adhesion of all AgI/II fragments with iSRCR1 (in words) [4, 20]: enhanced the adhesion
- inhibition of adhesion of A3VP1^SspB to iSRCR1 [5]: 61%
- inhibition of adhesion of C123^SspB to iSRCR1 [5]: 32%
- inhibition of adhesion of FL^SspB to iSRCR1 [5]: 64%
- effect on adhesion of all SspB fragments with iSRCR1 (in words) [6]: enhanced the adhesion
- inhibition of adhesion of A3VP1^AgI/II to iSRCR123 ([7]; 1.0 mM, 2 μM protein): 75%
- inhibition of adhesion of C123^AgI/II to iSRCR123 ([7]; 1.0 mM, 2 μM protein): 47%
- inhibition of adhesion of FL^AgI/II to iSRCR123 ([7]; 1.0 mM, 2 μM protein): 73%
- effect on adhesion of all AgI/II fragments with iSRCR123 (in words) [7, 20]: enhanced the adhesion
- inhibition of adhesion of A3VP1^SspB to iSRCR123 ([8]; 1.0 mM, 2 μM protein): 60%
- inhibition of adhesion of C123^SspB to iSRCR123 ([8]; 1.0 mM, 2 μM protein): 40%
- inhibition of adhesion of FL^SspB to iSRCR123 ([8]; 1.0 mM, 2 μM protein): 37%
- effect on adhesion of all SspB fragments with iSRCR123 (in words) [8, 20]: enhanced the adhesion
- inhibition of SAG adherence of AgI/II [9]: 94%
- inhibition of SAG adherence of SspB [10]: 65%
- inhibition of SAG adherence of GBPC [11]: 72%
- inhibition of SAG adherence of rcnM [12]: 69%
- inhibition of SAG adherence of Pas [13]: 28%

Compound: iSRCR1: recombinant single SRCR domain construct of Gp340 (15 kDa), Drosophila expression system
- adherence by FACS (in words) [14]: lower adherence
- increase in fluorescence intensity compared to the control [15]: 10 fold
- binding to cells by confocal microscopy (in words) [16]: binding
- percentage of cells aggregated [17]: 13%
- percentage of cells aggregated [18]: 17%
- Tm [19]: 56.5 °C

Source: US20160331662A1, “Compositions that Inhibit and Prevent the Formation of Dental Caries and Methods of Using the Same” (priority 2014, published 2016)
